pKd: −log10 of the molar value. ≈ marks a conversion by molar mass, not a printed value.
Legend:
SARS-CoV-2 [1] = format: functional, organism-based, Severe acute respiratory syndrome coronavirus 2, G614, Vero E6
SARS-CoV-2 [2] = assay: microbe, parasite or virus in culture; conditions: Severe acute respiratory syndrome coronavirus 2, D614, Vero C1008
Description: Antiviral activity against SARS-CoV-2 D614 isolates infected in African green monkey Vero E6 cells assessed as reduction in plaque formation treated for 1 hr prior to infection with cells incubated for 30 mins by plaque reduction neutralization test

Spike glycoprotein = Spike glycoprotein (Severe acute respiratory syndrome coronavirus 2, UniProt P0DTC2); assay: Binding affinity to RBD domain of SARS-CoV-2 spike protein assessed as dissociation constant by Isothermal Titration Calorimetry
[3] = Severe acute respiratory syndrome coronavirus 2, G614, Vero C1008, read-out: IC50

Row | Structure (SMILES) | IC50 (SARS-CoV-2 [1]; [3]) [µg/mL] | IC50 (SARS-CoV-2 [2]) [µg/mL] | IC50 (SARS-CoV-2 [1]; vero e6) | pKd (Spike glycoprotein)
1 | CC(C)CCC[C@@H](C)[C@H]1CC[C@H]2[C@@H]3CC[C@H]4C[C@@H](O[C@@H]5O[C@H](COS(=O)(=O)[O-])[C@@H](O[C@H]6O[C@H](COS(=O)(=O)[O-])[C@@H](O[C@H]7O[C@H](COS(=O)(=O)[O-])[C@@H](O[C@H]8O[C@H](COS(=O)(=O)[O-])[C@@H](O[C@H]9O[C@H](COS(=O)(=O)[O-])[C@@H](O[C@H]%10O[C@H](COS(=O)(=O)[O-])[C@@H](OS(=O)(=O)[O-])[C@H](OS(=O)(=O)[O-])[C@H]%10OS(=O)(=O)[O-])[C@H](OS(=O)(=O)[O-])[C@H]9OS(=O)(=O)[O-])[C@H](OS(=O)(=O)[O-])[C@H]8OS(=O)(=O)[O-])[C@H](OS(=O)(=O)[O-])[C@H]7OS(=O)(=O)[O-])[C@H](OS(=O)(=O)[O-])[C@H]6OS(=O)(=O)[O-])[C@H](OS(=O)(=O)[O-])[C@H]5OS(=O)(=O)[O-])CC[C@]4(C)[C@H]3CC[C@]12C.[Na+].[Na+].[Na+].[Na+].[Na+].[Na+].[Na+].[Na+].[Na+].[Na+].[Na+].[Na+].[Na+].[Na+].[Na+].[Na+].[Na+].[Na+].[Na+] | 65.9 | 11.9 |  | 
2 | C[C@H](CCC[C@@H](C)[C@H]1CC[C@@H]2C1CC[C@H]1[C@H]2CC[C@H]2C[C@@H](O[C@@H]3O[C@H](COS(=O)(=O)[O-])[C@@H](O[C@H]4O[C@H](COS(=O)(=O)[O-])[C@@H](O[C@H]5O[C@H](COS(=O)(=O)[O-])[C@@H](O[C@H]6O[C@H](COS(=O)(=O)[O-])[C@@H](OS(=O)(=O)[O-])[C@H](OS(=O)(=O)[O-])[C@H]6OS(=O)(=O)[O-])[C@H](OS(=O)(=O)[O-])[C@H]5OS(=O)(=O)[O-])[C@H](OS(=O)(=O)[O-])[C@H]4OS(=O)(=O)[O-])[C@H](OS(=O)(=O)[O-])[C@H]3OS(=O)(=O)[O-])CC[C@@]21C)CN=[N+]=[N-].[Na+].[Na+].[Na+].[Na+].[Na+].[Na+].[Na+].[Na+].[Na+].[Na+].[Na+].[Na+].[Na+] (stereo partly drawn) | 109 | 16.7 |  | 
3 | O=C(CCCCCCCCCCn1cc(CNc2ccc([N+](=O)[O-])c3nonc23)nn1)NCCCCCCCCCCCO[C@@H]1O[C@H](COS(=O)(=O)[O-])[C@@H](O[C@H]2O[C@H](COS(=O)(=O)[O-])[C@@H](O[C@H]3O[C@H](COS(=O)(=O)[O-])[C@@H](O[C@H]4O[C@H](COS(=O)(=O)[O-])[C@@H](OS(=O)(=O)[O-])[C@H](OS(=O)(=O)[O-])[C@H]4OS(=O)(=O)[O-])[C@H](OS(=O)(=O)[O-])[C@H]3OS(=O)(=O)[O-])[C@H](OS(=O)(=O)[O-])[C@H]2OS(=O)(=O)[O-])[C@H](OS(=O)(=O)[O-])[C@H]1OS(=O)(=O)[O-].[Na+].[Na+].[Na+].[Na+].[Na+].[Na+].[Na+].[Na+].[Na+].[Na+].[Na+].[Na+].[Na+] |  | 166 | Not Active | 
4 | [N-]=[N+]=NCCCCCCCCCCC(=O)NCCCCCCO[C@@H]1O[C@H](COS(=O)(=O)[O-])[C@@H](O[C@H]2O[C@H](COS(=O)(=O)[O-])[C@@H](O[C@H]3O[C@H](COS(=O)(=O)[O-])[C@@H](O[C@H]4O[C@H](COS(=O)(=O)[O-])[C@@H](OS(=O)(=O)[O-])[C@H](OS(=O)(=O)[O-])[C@H]4OS(=O)(=O)[O-])[C@H](OS(=O)(=O)[O-])[C@H]3OS(=O)(=O)[O-])[C@H](OS(=O)(=O)[O-])[C@H]2OS(=O)(=O)[O-])[C@H](OS(=O)(=O)[O-])[C@H]1OS(=O)(=O)[O-].[Na+].[Na+].[Na+].[Na+].[Na+].[Na+].[Na+].[Na+].[Na+].[Na+].[Na+].[Na+].[Na+] | 158 | 101 |  | 
5 | CC(C)CCC[C@@H](C)[C@H]1CC[C@H]2[C@@H]3CC[C@H]4C[C@@H](O[C@H]5O[C@H](COS(=O)(=O)[O-])[C@@H](O[C@H]6O[C@H](COS(=O)(=O)[O-])[C@@H](O[C@H]7O[C@H](COS(=O)(=O)[O-])[C@@H](O[C@H]8O[C@H](COS(=O)(=O)[O-])[C@@H](OS(=O)(=O)[O-])[C@H](OS(=O)(=O)[O-])[C@H]8OS(=O)(=O)[O-])[C@H](OS(=O)(=O)[O-])[C@H]7OS(=O)(=O)[O-])[C@H](OS(=O)(=O)[O-])[C@H]6OS(=O)(=O)[O-])[C@H](OS(=O)(=O)[O-])[C@H]5OS(=O)(=O)[O-])CC[C@]4(C)[C@H]3CC[C@]12C.[Na+].[Na+].[Na+].[Na+].[Na+].[Na+].[Na+].[Na+].[Na+].[Na+].[Na+].[Na+].[Na+] |  | 148 | Not Active | 
6 | CC(C)CCC[C@@H](C)[C@H]1CC[C@H]2[C@@H]3CC[C@H]4C[C@@H](O[C@@H]5O[C@@H](C(=O)O)[C@@H](O[C@@H]6O[C@@H](C(=O)O)[C@@H](O[C@@H]7O[C@@H](C(=O)O)[C@@H](O[C@@H]8O[C@@H](C(=O)O)[C@@H](OS(=O)(=O)O)[C@H](O)[C@H]8OS(=O)(=O)O)[C@H](O)[C@H]7OS(=O)(=O)O)[C@H](O)[C@H]6OS(=O)(=O)O)[C@H](O)[C@H]5OS(=O)(=O)O)CC[C@]4(C)[C@H]3CC[C@]12C |  | 48.5 (≈ 32.5 µM) |  | 
7 | CC(C)CCC[C@@H](C)[C@H]1CC[C@H]2[C@@H]3CC[C@H]4C[C@@H](OCc5cn(CCCO[C@@H]6O[C@H](COS(=O)(=O)[O-])[C@@H](O[C@H]7O[C@H](COS(=O)(=O)[O-])[C@@H](O[C@H]8O[C@H](COS(=O)(=O)[O-])[C@@H](O[C@H]9O[C@H](COS(=O)(=O)[O-])[C@@H](OS(=O)(=O)[O-])[C@H](OS(=O)(=O)[O-])[C@H]9OS(=O)(=O)[O-])[C@H](OS(=O)(=O)[O-])[C@H]8OS(=O)(=O)[O-])[C@H](OS(=O)(=O)[O-])[C@H]7OS(=O)(=O)[O-])[C@H](OS(=O)(=O)[O-])[C@H]6OS(=O)(=O)[O-])nn5)CC[C@]4(C)[C@H]3CC[C@]12C.[Na+].[Na+].[Na+].[Na+].[Na+].[Na+].[Na+].[Na+].[Na+].[Na+].[Na+].[Na+].[Na+] | 310 | 115 |  | 
8 | CC(C)CCC[C@@H](C)[C@H]1CC[C@H]2[C@@H]3CC[C@H]4C[C@@H](O[C@@H]5O[C@@H](C(=O)O)[C@@H](O[C@@H]6O[C@@H](C(=O)O)[C@@H](O[C@@H]7O[C@@H](C(=O)O)[C@@H](OS(=O)(=O)O)[C@H](O)[C@H]7OS(=O)(=O)O)[C@H](O)[C@H]6OS(=O)(=O)O)[C@H](O)[C@H]5OS(=O)(=O)O)CC[C@]4(C)[C@H]3CC[C@]12C |  | 30.4 (≈ 24.6 µM) |  | 5.04
9 | C#CCNC(=O)CC[C@@H](C)[C@H]1CC[C@H]2[C@@H]3CC[C@@H]4C[C@H](O[C@@H]5O[C@H](COS(=O)(=O)[O-])[C@@H](O[C@H]6O[C@H](COS(=O)(=O)[O-])[C@@H](O[C@H]7O[C@H](COS(=O)(=O)[O-])[C@@H](O[C@H]8O[C@H](COS(=O)(=O)[O-])[C@@H](OS(=O)(=O)[O-])[C@H](OS(=O)(=O)[O-])[C@H]8OS(=O)(=O)[O-])[C@H](OS(=O)(=O)[O-])[C@H]7OS(=O)(=O)[O-])[C@H](OS(=O)(=O)[O-])[C@H]6OS(=O)(=O)[O-])[C@H](OS(=O)(=O)[O-])[C@H]5OS(=O)(=O)[O-])CC[C@]4(C)[C@H]3CC[C@]12C.[Na+].[Na+].[Na+].[Na+].[Na+].[Na+].[Na+].[Na+].[Na+].[Na+].[Na+].[Na+].[Na+] |  | 85.3 | Not Active | 
10 | CCCCCCCCCCCCCCCCCC(=O)NCCCO[C@@H]1O[C@H](COS(=O)(=O)[O-])[C@@H](O[C@H]2O[C@H](COS(=O)(=O)[O-])[C@@H](O[C@H]3O[C@H](COS(=O)(=O)[O-])[C@@H](O[C@H]4O[C@H](COS(=O)(=O)[O-])C(S(=O)(=O)[O-])[C@H](OS(=O)(=O)[O-])[C@H]4OS(=O)(=O)[O-])[C@H](OS(=O)(=O)[O-])[C@H]3OS(=O)(=O)[O-])[C@H](OS(=O)(=O)[O-])[C@H]2OS(=O)(=O)[O-])[C@H](OS(=O)(=O)[O-])[C@H]1OS(=O)(=O)[O-].[Na+].[Na+].[Na+].[Na+].[Na+].[Na+].[Na+].[Na+].[Na+].[Na+].[Na+].[Na+].[Na+] (stereo partly drawn) | 70.8 | 19.5 |  | 
11 | CC(C)CCC[C@@H](C)[C@H]1CC[C@H]2[C@@H]3CC[C@H]4C[C@@H](O[C@@H]5O[C@@H](COS(=O)(=O)O)[C@@H](O[C@@H]6O[C@@H](COS(=O)(=O)O)[C@@H](O[C@@H]7O[C@@H](COS(=O)(=O)O)[C@@H](O[C@@H]8O[C@@H](COS(=O)(=O)O)[C@@H](OS(=O)(=O)O)[C@H](O)[C@H]8OS(=O)(=O)O)[C@H](O)[C@H]7OS(=O)(=O)O)[C@H](O)[C@H]6OS(=O)(=O)O)[C@H](O)[C@H]5OS(=O)(=O)O)CC[C@]4(C)[C@H]3CC[C@]12C |  | 27.5 (≈ 15.6 µM) |  | 
12 | CC(C)CCC[C@@H](C)[C@H]1CC[C@H]2[C@@H]3CC[C@H]4C[C@@H](O[C@@H]5O[C@@H](COS(=O)(=O)O)[C@@H](O[C@@H]6O[C@@H](COS(=O)(=O)O)[C@@H](O[C@@H]7O[C@@H](COS(=O)(=O)O)[C@@H](OS(=O)(=O)O)[C@H](O)[C@H]7OS(=O)(=O)O)[C@H](O)[C@H]6OS(=O)(=O)O)[C@H](O)[C@H]5OS(=O)(=O)O)CC[C@]4(C)[C@H]3CC[C@]12C |  | 26.9 (≈ 18.7 µM) |  | 5.68
13 | CC(C)CCC[C@@H](C)[C@H]1CC[C@H]2[C@@H]3CC[C@H]4C[C@@H](O[C@@H]5O[C@@H](COS(=O)(=O)O)[C@@H](O[C@@H]6O[C@@H](COS(=O)(=O)O)[C@@H](OS(=O)(=O)O)[C@H](O)[C@H]6OS(=O)(=O)O)[C@H](O)[C@H]5OS(=O)(=O)O)CC[C@]4(C)[C@H]3CC[C@]12C |  | 32.1 (≈ 28.8 µM) |  | 
